According to PubChem BioAssay (NCI):
Several values for one entry are separate records, joined by “and”; a condition that tells them apart may be missing. Identical values can stand only once.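 1) Cells in 96-well plates. 2) Compound, 48 h, 5 concentrations. 3) Linear interpolation between surrounding doses. 4) Unreached endpoint = highest concentration. Abbreviation: GI50, concentration required for 50% inhibition of growth. TGI: concentration producing complete growth inhibition.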

Legend:
Assay in all cases: growth of human tumour cells (NCI), 48 h
SF-539 CNS = system: SF-539 CNS
NCI-H460 lung = system: NCI-H460 lung
MALME-3M melanoma = system: MALME-3M melanoma
UACC-62 melanoma = system: UACC-62 melanoma
SW-620 colon = system: SW-620 colon
OVCAR-3 ovarian = system: OVCAR-3 ovarian
UO-31 renal = system: UO-31 renal
HCT-15 colon = system: HCT-15 colon
K-562 leukemia = system: K-562 leukemia
EKVX NSCLC = system: EKVX NSCLC
KM12 colon = system: KM12 colon

SMILES	TGI (SF-539 CNS)	TGI (NCI-H460 lung)	TGI (MALME-3M melanoma) [µM]	TGI (UACC-62 melanoma) [µM]	TGI (SW-620 colon)	TGI (OVCAR-3 ovarian)	TGI (UO-31 renal)	TGI (HCT-15 colon)	TGI (K-562 leukemia)	TGI (EKVX NSCLC)	TGI (KM12 colon)	GI50 (SF-539 CNS) [µM]	GI50 (NCI-H460 lung) [µM]	GI50 (SW-620 colon) [µM]	GI50 (OVCAR-3 ovarian) [µM]	GI50 (UO-31 renal) [µM]	GI50 (HCT-15 colon) [µM]	GI50 (K-562 leukemia) [µM]	GI50 (EKVX NSCLC) [µM]	GI50 (KM12 colon) [µM]
Cc1nc(C)c(N2CCN(Cc3ccccc3)CC2)c(=O)[nH]1	> 100 µM	> 100 µM	> 100	> 100	> 100 µM	> 100 µM	> 100 µM	> 100 µM	> 100 µM	> 100 µM	> 100 µM									
C#CN1C(=O)c2c(c(-c3ccccc3)c(-c3ccc(Oc4ccc(-c5c(-c6ccccc6)c6c(c(-c7ccccc7)c5-c5ccccc5)C(=O)N(C#C)C6=O)cc4)cc3)c(-c3ccccc3)c2-c2ccccc2)C1=O	> 100 µM	> 100 µM	> 100	> 100	> 100 µM	> 100 µM	> 100 µM	> 100 µM	> 100 µM	> 100 µM	> 100 µM									
COc1cccc(CCn2c(N)c(-c3cc(Cl)cc(Cl)c3)c3ccc([N+](=O)[O-])cc3c2=O)c1	> 100 µM	> 30.8 µM	32.6	> 100	> 100 µM	> 100 µM	25.5 µM	> 44.5 µM	4.28 µM	> 100 µM	> 100 µM									
COC1(OC)CCN(Cc2ccccc2)C1=O	28.6 µM	41.2 µM	> 100	26.1	7.28 µM	23.7 µM	22.8 µM	38.6 µM	> 37.9 µM	29.7 µM	32.2 µM									
COc1ccc(C[C@H]2COC(=O)[C@@H]2Cc2ccc(Br)cc2)cc1OC	> 100 µM	> 100 µM	> 89.5	96.8	> 100 µM	> 100 µM	24.2 µM	> 100 µM	> 72 µM	56.5 µM	> 75.2 µM									
Cc1ccc(S(=O)(=O)c2ccc(C)cc2[N+](=O)[O-])c([N+](=O)[O-])c1	> 100 µM	> 100 µM	> 100	> 100	> 100 µM	> 100 µM	> 100 µM	> 100 µM	> 100 µM	> 100 µM	> 100 µM									
Cc1n[nH]c(=O)n1/N=C/c1ccco1	> 100 µM	> 100 µM	> 100	> 100	> 100 µM	> 100 µM	> 100 µM	> 100 µM	> 100 µM	> 100 µM	> 100 µM									
O=[N+]([O-])C(C(Cl)=C(Cl)Cl)=C(N1CCCCC1)N1CCCCC1	> 100 µM	> 100 µM	> 100	> 100	> 100 µM	> 100 µM	> 100 µM	> 100 µM	> 100 µM	> 100 µM	> 100 µM									
NC(=O)C1=C(O)[C@@]2(O)C(=O)C3=C(O)c4c(O)cccc4CC3C[C@H]2CC1=O (some centres not stated)	13.4 µM	11.8 µM	5.23	8.61	33.6 µM	14.7 µM	10.5 µM	6.21 µM	> 61.5 µM	9.23 µM	23.4 µM									
CC1=CC2(C)C=C[C@@H]1C(=O)[C@@]1(C)CC[C@@](O)(C(C)C)[C@H]1CC2	35 µM	32.5 µM	36.2	45.5	37.7 µM	32.2 µM	31.4 µM	55.8 µM	52.1 µM	63.1 µM	41.7 µM									
O=c1[nH]c(=O)n([C@H]2C[C@@H](CO)[C@@H](O)C2)cc1I	> 100 µM	> 100 µM	> 100	> 100	> 100 µM	> 100 µM	> 100 µM	> 100 µM	> 100 µM	> 100 µM	> 100 µM									
Nc1ncnc2c1ccn2CC#CCO	> 100 µM	> 100 µM	> 100	> 100	> 100 µM	> 100 µM	> 100 µM	> 100 µM	> 100 µM	> 100 µM	> 100 µM									
COC(=O)C(=O)C(C(=O)OC)C(=O)C(=O)Nc1cc(Cl)c(C)cc1S(=O)(=O)O (configuration not stated)	> 100 µM	> 100 µM	> 100	> 100	> 100 µM	> 100 µM	> 100 µM	> 100 µM	> 100 µM	> 100 µM	> 100 µM									
COc1ccc2nc3ccc(OC)cc3c(S(=O)Cc3ccccc3)c2c1 (configuration not stated)	27.2 µM	> 74.5 µM	7.87	28.5	> 32.1 µM	26.1 µM	22.8 µM	> 48.9 µM	> 25.6 µM	30.5 µM	40.5 µM									
Cc1ccccc1N(CCC#N)C1=NN(C(=O)CC(=O)Nc2ccc(Cl)cc2)C(c2ccccc2)C1 (configuration not stated)	> 100 µM	> 100 µM	> 100	> 100	> 100 µM	> 100 µM	> 100 µM	> 100 µM	> 100 µM	> 100 µM	> 100 µM									
O=C1C(Cl)C(c2ccc(O)cc2)N1n1cnc2ccccc2c1=O (configuration not stated)	> 100 µM	> 100 µM	> 83.9	48.4	47.8 µM	> 90.1 µM	> 100 µM	> 100 µM	> 100 µM	> 100 µM	> 100 µM									
CCCCCN1C(=O)C(Cc2ccccc2)N=C(c2ccc(O)cc2)c2cc(Cl)ccc21 (configuration not stated)	38.9 µM	24.3 µM	23.6	25	26.8 µM	45.1 µM	25.3 µM	21.2 µM	12.3 µM	25.6 µM	30.3 µM									
CC(C)(C)OC(=O)N(O)CCCn1cnc2c(NC3CC3)ncnc21	> 100 µM	> 100 µM	> 100	> 100	> 100 µM	> 100 µM	> 100 µM	> 100 µM	> 100 µM	> 100 µM	> 100 µM									
C=CC(C)(C)NC(C(=O)N1CCC[C@H]1c1nc(-c2nc(C(=O)OCC=C(C)C)c(C)o2)c(C)o1)C(C)C (some centres not stated)	> 68.7 µM	> 100 µM	> 100	> 60.9	> 100 µM	> 100 µM	> 65.1 µM	> 95.5 µM	> 100 µM	> 90.1 µM	> 90.6 µM									

SMILES	TGI (SF-539 CNS)	TGI (NCI-H460 lung)	TGI (MALME-3M melanoma) [µM]	TGI (UACC-62 melanoma) [µM]	TGI (SW-620 colon)	TGI (OVCAR-3 ovarian)	TGI (UO-31 renal)	TGI (HCT-15 colon)	TGI (K-562 leukemia)	TGI (EKVX NSCLC)	TGI (KM12 colon)	GI50 (SF-539 CNS) [µM]	GI50 (NCI-H460 lung) [µM]	GI50 (SW-620 colon) [µM]	GI50 (OVCAR-3 ovarian) [µM]	GI50 (UO-31 renal) [µM]	GI50 (HCT-15 colon) [µM]	GI50 (K-562 leukemia) [µM]	GI50 (EKVX NSCLC) [µM]	GI50 (KM12 colon) [µM]
Cn1c2ncccc2n2c(=O)cc(O)cc12	> 100 µM	> 100 µM	> 100	> 100	> 100 µM	> 100 µM	> 100 µM	> 100 µM	> 100 µM	> 100 µM	> 100 µM									
O=C1c2ccccc2C(=O)c2c1oc1cc(O)c(Cl)cc21	16.1 µM	9.89 µM	2.51	4.32	24.9 µM	8.52 µM	26.6 µM	17.8 µM	43.9 µM	29.6 µM	19.4 µM									
CCC1=CC(OCc2ccccc2)C(CCN(Cc2ccccc2)C(=O)OCc2ccccc2)C1 (configuration not stated)	49.1 µM	39.7 µM	30.1	24.8	37 µM	28.4 µM	28.3 µM	29.1 µM	> 100 µM	32.8 µM	29.7 µM									
Cc1cc(NS(=O)(=O)c2ccc(NO)cc2)no1	> 100 µM	> 100 µM	> 100	> 100	82.9 µM	> 100 µM	> 100 µM	> 100 µM	43.7 µM	> 100 µM	> 100 µM									
O=c1cccccc1[O-].O=c1cccccc1[O-].O=c1cccccc1[O-].[Nd+3]	74.9 µM	> 100 µM	> 100	88	> 100 µM	38.2 µM	> 100 µM	> 100 µM	> 100 µM	> 100 µM	> 100 µM	19.7								
CC(=O)Oc1ccc2c(c1)[nH]c1c3ccc(OC(C)=O)cc3oc(=O)c21	> 100 µM	> 100 µM	> 100	> 100	> 100 µM	71.9 µM	> 100 µM	> 100 µM	> 100 µM	86.1 µM	> 100 µM									
CN1CCCS/C1=C1/SC(=S)N(c2ccccc2)C1=O	> 100 µM	> 100 µM	> 100	> 100	> 100 µM	> 100 µM	> 100 µM	> 100 µM	> 100 µM	> 100 µM	> 100 µM									
COc1ccc(COCC[C@H](C)OC2OC(CO[Si](C)(C)C(C)(C)C)C(O)C(O)C2O)cc1 (some centres not stated)	> 100 µM	> 100 µM	> 100	> 100	> 100 µM	> 100 µM	> 100 µM	> 100 µM	> 100 µM	> 100 µM	> 100 µM									
N#CCCC(C#N)(C#N)CCC#N	> 100 µM	> 100 µM	> 100	> 100	> 100 µM	> 100 µM	> 100 µM	> 100 µM	> 100 µM	> 100 µM	> 100 µM									
COc1ccc2nc3c4c(nccc4c2c1)-c1ncccc1C3=O	0.56 µM	0.119 µM	0.291	0.159	0.567 µM	0.0569 µM	0.706 µM	0.069 µM	0.174 µM	0.903 µM	0.706 µM									
O=C(Nc1ccccc1)OCCN=c1c2ccccc2ccc2ccccc12	37 µM	59.1 µM	46	49.1	> 100 µM	44.2 µM	39.9 µM	> 100 µM	51.1 µM	92.4 µM	44.4 µM									
O=C1CC(n2ccnc2)c2c(Cl)sc(Cl)c21 (configuration not stated)	35.4 µM	> 73.9 µM	36.1	32	> 33.1 µM	30.3 µM	27 µM	28.1 µM	> 38.1 µM	38.7 µM	33.9 µM									
c1ccc2c(c1)CCN1CCc3ccccc3C1C2 (configuration not stated)	61.5 µM	> 100 µM	> 100	> 100	> 100 µM	> 100 µM	68.9 µM	> 100 µM	> 100 µM	> 100 µM	> 100 µM									
COc1ccc(OC(=O)N2C/C(=C\c3ccccc3)C(=O)/C(=C/c3ccccc3)C2)cc1	22.5 µM	13.7 µM	27.8	5.35	2.89 µM	13.1 µM	23.6 µM	9.23 µM	7.66 µM	58.3 µM	4.18 µM									
CSC12c3cc(C)n(-c4ccc(I)cc4)c3CC(C)(C)CN1C(=O)C2Oc1ccccc1 (configuration not stated)	> 100 µM	> 100 µM	> 100	> 100	> 100 µM	> 100 µM	> 100 µM	> 100 µM	> 100 µM	> 100 µM	> 100 µM									
COC(=O)CN1Cc2cc(C)cc(c2O)CN(CC(=O)OC)Cc2cc(C)cc(c2O)CN(CC(=O)OC)Cc2cc(C)cc(c2O)CN(CC(=O)OC)Cc2cc(C)cc(c2O)C1	50 µM and > 100 µM	50 µM and > 100 µM	50	> 100	50 µM and > 100 µM	32.1 µM and > 100 µM	50 µM and > 100 µM	50 µM and > 100 µM	50 µM and > 100 µM	50 µM and > 100 µM	50 µM and > 100 µM	37.3	21.7	18	5.7	33.8	25	61.2	35.3	50.2
COc1ccc(S(=O)(=O)N/N=C(\C)CN2C(=O)c3ccccc3C2=O)cc1OC	> 100 µM	> 100 µM	> 100	> 100	> 100 µM	> 100 µM	> 100 µM	> 100 µM	> 100 µM	> 100 µM	> 100 µM									
c1cc2c(cc1C1OCC3C(c4ccc5c(c4)OCO5)OCC13)OCO2 (configuration not stated)	> 100 µM	> 100 µM	> 100	> 100	> 100 µM	> 100 µM	> 100 µM	> 100 µM	> 100 µM	> 100 µM	> 100 µM									
